Laboratory results from patent US12336981B2, “Compounds and compositions for the inhibition of NAMPT” (Valo Health, Inc., priority 2010, dated 2025).
Where two headings read alike, the source gives them in different places.

Key:
A2780 cells = experiment: In-vitro cell proliferation assay (SRB), A2780 cells; format: cell-based; settings: Homo sapiens, A2780, 72 h, A2780 cells, 72 hours, read-out: A2780 IC50
Summary of the method: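 Growth inhibition was derived from background-corrected SRB absorbance (570 nm), measured on cells fixed in 6% TCA after three days of compound treatment under 5% CO2 at 37° C.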

NAMPT = target: T1, NAMPT (Homo sapiens, UniProt P43490); experiment: Biochemical inhibition assay: NAMPT enzymatic reaction, NMN quantified by mass spectrometry; settings: read-out: Biochem IC50
T1 construct: His tag; host or cells: E. coli
T1 sequence (P43490 whole entry): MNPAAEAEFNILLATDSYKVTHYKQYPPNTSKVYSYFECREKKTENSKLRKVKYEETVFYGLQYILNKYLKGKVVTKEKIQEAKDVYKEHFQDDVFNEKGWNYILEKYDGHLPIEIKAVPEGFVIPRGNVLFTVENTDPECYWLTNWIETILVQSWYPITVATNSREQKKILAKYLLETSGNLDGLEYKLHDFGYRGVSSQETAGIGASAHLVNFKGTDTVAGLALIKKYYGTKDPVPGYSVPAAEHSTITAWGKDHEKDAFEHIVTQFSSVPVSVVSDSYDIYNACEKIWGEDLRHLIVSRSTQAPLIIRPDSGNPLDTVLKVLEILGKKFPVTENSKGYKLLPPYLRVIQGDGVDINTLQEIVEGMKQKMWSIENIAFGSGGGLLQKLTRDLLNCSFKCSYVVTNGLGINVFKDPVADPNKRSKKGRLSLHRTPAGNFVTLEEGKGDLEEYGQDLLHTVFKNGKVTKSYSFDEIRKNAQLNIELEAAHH
Summary of the method: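 Inhibition of E. coli-expressed His-tagged human NAMPT, measured as NMN formation by mass spectrometry after a 30 min room-temperature reaction containing 1 μM NAM, 100 μM PRPP and 2.5 mM ATP.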

SMILES	IC50 (A2780 cells; SRB)	IC50 (NAMPT; NAMPT enzymatic assay)	IC50 (A2780 cells; SRB assay)	IC50 (NAMPT; NAMPT enzymatic reaction)
COc1ccc(C(C)(C)C)cc1S(=O)(=O)c1ccc(CNC(=O)c2cnc3[nH]ncc3c2)cc1	21.6 nM	45.6 nM		
O=C(NCc1ccc(S(=O)(=O)c2ccccc2Cl)cc1)c1cc2cnccc2[nH]1 [N-({4-[(2-chlorobenzene)sulfonyl]phenyl}methyl)-1H-pyrrolo[3,2-c]pyridine-2-carboxamide]			117 nM	6 nM
O=C(NCc1ccc(S(=O)(=O)c2ccccc2)cc1)c1n[nH]c2ncccc12 [N-{[4-(benzenesulfonyl)phenyl]methyl}-1H-pyrazolo[3,4-b]pyridine-3-carboxamide]			> 10000 nM	1270 nM
Cc1cccc(S(=O)(=O)c2ccc(CNC(=O)c3cc4cnccc4[nH]3)cc2)c1 [N-({4-[(3-methylbenzene)sulfonyl]phenyl}methyl)-1H-pyrrolo[3,2-c]pyridine-2-carboxamide]			4 nM	9 nM
Cc1cc(S(=O)(=O)c2ccc(CNC(=O)c3cnc4nccn4c3)cc2)c(C)cc1F	29.4 nM			5.8 nM
Cc1ccncc1S(=O)(=O)c1ccc(CNC(=O)c2cnc3nccn3c2)cc1 [N-{[4-(4-methylpyridine-3-sulfonyl)phenyl]methyl}imidazo[1,2-a]pyrimidine-6-carboxamide]	100 to 1000 nM	19.1 nM		
COc1cc(OC)cc(S(=O)(=O)c2ccc(CNC(=O)c3cc4cnccc4[nH]3)cc2)c1	1.5 nM			4.4 nM
O=C(NCc1ccc(S(=O)(=O)c2ccc3c(c2)OCCO3)cc1)c1cc2ccncc2o1 [N-{[4-(2,3-dihydro-1,4-benzodioxine-6-sulfonyl)phenyl]methyl}furo[2,3-c]pyridine-2-carboxamide]	6.2 nM	5.5 nM		
O=C(NCc1ccc(S(=O)(=O)c2cc(F)cc(N3CCOCC3)c2)cc1)c1cc2cnccc2[nH]1	0.8 nM	4 nM		
Cc1ccc(Cl)c(S(=O)(=O)c2ccc(CNC(=O)c3cc4ccncc4o3)cc2)c1F [N-({4-[(6-chloro-2-fluoro-3-methylbenzene)sulfonyl]phenyl}methyl)furo[2,3-c]pyridine-2-carboxamide]	29.3 nM	21.9 nM		
O=C(NCc1ccc(S(=O)(=O)c2cc(F)cc(OCC(F)(F)F)c2)cc1)c1cnc2[nH]ncc2c1 [N-[(4-{[3-fluoro-5-(2,2,2-trifluoroethoxy)benzene]sulfonyl}phenyl)methyl]-1H-pyrazolo[3,4-b]pyridine-5-carboxamide]	4.82 nM	8 nM		
O=C(NCc1ccc(S(=O)(=O)c2cccc(N3CCCC3)c2)cc1)c1cnc2[nH]ncc2c1	12.8 nM	17.1 nM		
CN1CCN(c2ccc(S(=O)(=O)c3ccc(CNC(=O)c4cc5cnccc5[nH]4)cc3)cn2)CC1 [N-({4-[6-(4-methylpiperazin-1-yl)pyridine-3-sulfonyl]phenyl}methyl)-1H-pyrrolo[3,2-c]pyridine-2-carboxamide]	0.6 nM	6 nM		
CS(=O)(=O)c1cccc(S(=O)(=O)c2ccc(CNC(=O)c3cc4ccncc4s3)cc2)c1	3.5 nM			1.7 nM
Cc1cc(S(=O)(=O)c2ccc(CNC(=O)c3ccc4nccn4c3)cc2)c(C)cc1F	11 nM			44 nM
O=C(NCc1ccc(S(=O)(=O)c2cnc3ccc(Cl)cn23)cc1)c1ccc2nccn2c1 [N-[(4-{6-chloroimidazo[1,2-a]pyridine-3-sulfonyl}phenyl)methyl]imidazo[1,2-a]pyridine-6-carboxamide]	0.4 nM	5.3 nM		
O=C(NCc1ccc(S(=O)(=O)c2ccc(Cl)c(F)c2)cc1)c1cc2cnccc2[nH]1 [N-({4-[(4-chloro-3-fluorobenzene)sulfonyl]phenyl}methyl)-1H-pyrrolo[3,2-c]pyridine-2-carboxamide]			13 nM	8 nM
Cc1cc(C)n(-c2cccc(S(=O)(=O)c3ccc(CNC(=O)c4cnc5[nH]ncc5c4)cc3)c2)n1	5.3 nM	25.3 nM		
O=C(NCc1ccc(S(=O)(=O)c2ccc(F)cc2C(F)(F)F)cc1)c1cnc2nccn2c1	100 to 1000 nM	18.7 nM		
